Laboratory results: BindingDB's records for doi:10.1016/j.bmcl.2008.07.045 (Korea Research Institute of Bioscience and Biotechnology, 2008)

Molecular target: Intercellular adhesion molecule 1 (Homo sapiens, UniProt P05362)
Assay: Inhibition of sICAM1/LFA1 interaction-mediated human THP1 cell adhesion after 1 hr by ELISA

Sequence of Intercellular adhesion molecule 1 (P05362 whole entry): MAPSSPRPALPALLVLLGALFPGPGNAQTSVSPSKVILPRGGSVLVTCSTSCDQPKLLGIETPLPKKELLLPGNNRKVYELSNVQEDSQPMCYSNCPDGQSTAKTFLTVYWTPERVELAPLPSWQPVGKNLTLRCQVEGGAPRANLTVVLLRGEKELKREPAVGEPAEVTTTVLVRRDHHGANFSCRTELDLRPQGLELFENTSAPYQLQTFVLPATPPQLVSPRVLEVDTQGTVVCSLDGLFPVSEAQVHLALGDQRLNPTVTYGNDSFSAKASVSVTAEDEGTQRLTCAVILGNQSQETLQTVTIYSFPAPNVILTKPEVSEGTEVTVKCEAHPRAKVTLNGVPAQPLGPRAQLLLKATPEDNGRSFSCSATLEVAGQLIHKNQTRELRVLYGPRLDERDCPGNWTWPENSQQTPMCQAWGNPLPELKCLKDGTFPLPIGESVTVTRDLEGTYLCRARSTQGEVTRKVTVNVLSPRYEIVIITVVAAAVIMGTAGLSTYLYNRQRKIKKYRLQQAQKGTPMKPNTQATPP

| IC50 | Structure (SMILES) |
| --- | --- |
| 37.8 µM | O=C(CCCCCC/C=C/c1ccc2c(c1)OCO2)N1CCCCC1 [PIPERROLEIN B] |
| 62.6 µM | CCCCC/C=C/C=C/C(=O)NCC(C)C [CHEBI:69686] |
| 32.4 µM | O=C(/C=C/C=C\CC/C=C/c1ccc2c(c1)OCO2)N1CCCCC1 |

Molecular target: not listed separately
Assay: Inhibition of sICAM1/LFA1 interaction-mediated human THP1 cell adhesion after 1 hr by ELISA

| Structure (SMILES) | IC50 |
| --- | --- |
| O=C(/C=C/C=C/CC/C=C/c1ccc2c(c1)OCO2)N1CCCCC1 [Dehydropipernoline] | 17.6 µM |
| CC(C)CNC(=O)/C=C/C=C/CCCCCC/C=C/c1ccc2c(c1)OCO2 [Guineensine] | > 130 µM |

More lines, now with the values ahead:

| IC50 | Structure (SMILES) |
| --- | --- |
| > 151 µM | CC(C)CNC(=O)/C=C/CCCC/C=C/c1ccc2c(c1)OCO2 [RETROFRACTAMIDE C] |
| 83.9 µM | CC(C)CNC(=O)/C=C/CCCCCC/C=C/c1ccc2c(c1)OCO2 [PIPERCHABAMIDE D] |
| 25.7 µM | O=C(/C=C/CCCC/C=C/c1ccc2c(c1)OCO2)N1CCCCC1 [Pipernonaline] |
